Assay results reported in PubChem BioAssay (NCI).
Where “and” joins values, the source holds several entries; their conditions need not be identical. Identical values can stand only once.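 Following 48 hours of exposure in 96-well plates, responses at five concentrations were used to interpolate endpoints linearly. GI50 is the concentration that inhibits growth by half. TGI is the concentration that stops growth completely.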

What was measured:
Assay in all cases: DTP human tumour cell line panel, 48 h
[1] = system: DMS 273 small cell lung
[2] = system: HOP-62 NSCLC
[3] = system: KM20L2 colon
[4] = system: M19-MEL melanoma
[5] = system: SNB-75 CNS
[6] = system: SNB-78 CNS
[7] = system: TK-10 renal
[8] = system: HS 578T breast
[9] = system: NCI/ADR-RES ovarian
[10] = system: BT-549 breast

| Compound | TGI [1] | TGI [2] | TGI [3] | TGI [4] | TGI [5] | TGI [6] [µM] | TGI [7] | TGI [8] | TGI [9] | GI50 [10] [µM] | TGI [10] | GI50 [2] | GI50 [8] | GI50 [9] [µM] | GI50 [7] | GI50 [1] [µM] | GI50 [3] [µM] | GI50 [5] [µM] | GI50 [6] [µM] | GI50 [4] [µM] |
| --- | --- | --- | --- | --- | --- | --- | --- | --- | --- | --- | --- | --- | --- | --- | --- | --- | --- | --- | --- | --- |
| Cc1cc(C)nc(NS(=O)(=O)c2ccc(Nc3c4ccccc4nc4c(C(=O)Nc5ccc(S(=O)(=O)N=C(N)N)cc5)ccc(Cl)c34)cc2)n1 | > 100 µM | 54.8 µM | > 100 µM | 55.4 µM | > 100 µM | > 100 | 95.5 µM | – | – | – | – | – | – | – | – | – | – | – | – | – |
| COc1cc([C@H]2c3cc4c(cc3O[C@@]3(O)COC(=O)[C@@H]23)OCO4)cc(OC)c1OC | > 100 µM | > 100 µM | > 100 µM | > 100 µM | > 100 µM | > 100 | > 100 µM | > 100 µM | > 100 µM | – | – | – | – | – | – | – | – | – | – | – |
| Cn1c2c(c3ccccc31)CCN(CCCCN1CCc3c(n(C)c4ccccc34)C1=O)C2 | > 100 µM | > 100 µM | > 100 µM | > 100 µM | > 100 µM | > 100 | > 100 µM | – | – | – | – | – | – | – | – | – | – | – | – | – |
| COc1ccc(C(=O)/C(Br)=C/C(=O)O)cc1 | 26.3 µM | 58.3 µM and 50.3 µM | 185 µM | 106 µM | 145 µM and 186 µM | – | 167 µM and 285 µM | 649 µM and 399 µM | 387 µM and 116 µM | 242 | 96.4 µM and 406 µM | 24.1 µM | 43.1 µM and 30.9 µM | 18.3 | 113 µM | – | – | – | – | – |
| Nc1ccn(CCOC(=O)c2ccccc2)c(=O)n1 | > 100 µM | > 100 µM | > 100 µM | – | > 100 µM | > 100 | > 100 µM | – | – | – | – | – | – | – | – | – | – | – | – | – |
| Nn1c(-c2ccccc2)nc2ccc(Br)cc2c1=O | > 100 µM | – | > 100 µM | > 100 µM | > 100 µM | > 100 | > 100 µM | – | – | – | – | – | – | – | – | – | – | – | – | – |
| O=C1C(=O)N(C(=O)c2ccc(Cl)c(Cl)c2)c2ccccc21 | > 100 µM | – | – | > 100 µM | > 100 µM | > 100 | > 100 µM | – | – | – | – | – | – | – | – | – | – | – | – | – |
| N#CCC(=O)Nc1cccc(C(F)(F)F)c1 | > 100 µM | > 100 µM | > 100 µM | > 100 µM | > 100 µM | > 100 | > 100 µM | – | – | – | – | – | – | – | – | – | – | – | – | – |
| COC(=O)C1CC2(CC3=C1CCCC3)OCCO2 (stereo not given) | > 100 µM | > 100 µM | – | > 100 µM | > 100 µM | > 100 | > 100 µM | – | – | – | – | – | – | – | – | – | – | – | – | – |
| CCOC(=O)C(=O)Nc1nc2c(s1)C(=O)c1ccccc1C2=O | 40.6 µM | 33.5 µM | 40.7 µM | 7.45 µM | 30.2 µM | 24.8 | – | – | – | – | – | – | – | – | – | – | – | – | – | – |
| O=C1CC(O)C=C1Nc1ccc(Cl)cc1 (stereo not given) | > 100 µM | > 100 µM | 37.8 µM | > 100 µM | > 100 µM | > 100 | > 100 µM | – | – | – | – | – | – | – | – | – | – | – | – | – |
| COc1cc(OC)c([C@@H]2OC(=O)C3C2C(=O)O[C@H]3c2cc(OC)c(OC)cc2OC)cc1OC (stereo not given in full) | > 100 µM | > 100 µM | > 100 µM | > 100 µM | > 100 µM | > 100 | – | – | – | – | – | – | – | – | – | – | – | – | – | – |
| CNC(P(=O)([O-])[O-])P(=O)([O-])[O-].N.N.[Pt+2] | > 100 µM | – | > 100 µM | – | > 100 µM | > 100 | > 100 µM | – | – | – | – | – | – | – | > 100 µM | > 100 | > 100 | > 100 | > 100 | – |
| Cc1cnc2c(C)ccc([N+](=O)[O-])c2c1NCCCN(C)C | > 100 µM | > 100 µM | > 100 µM | > 100 µM | – | > 100 | > 100 µM | – | – | – | – | – | – | – | – | – | – | – | – | – |
| CCOC(=O)[C@@]1(C)C=C2O[C@@H]3OC4(CCCCC4)O[C@@H]3C2=C2C(O)=CC=C(O)[C@]21C(=O)OC | > 68 µM | > 68 µM | > 68 µM | > 68 µM | > 68 µM | > 68 | > 68 µM | – | – | – | – | – | – | – | – | – | – | – | – | – |
| CCc1cccc(C(C)C)c1NC(=O)C(=O)C(Cc1nc2ccccc2[nH]c1=O)C(=O)OC (stereo not given) | > 100 µM | > 100 µM | > 100 µM | > 100 µM | > 100 µM | – | > 100 µM | – | – | – | – | – | – | – | – | – | – | – | – | – |
| C[C@@H]1C[C@@H](O)[C@]2(O)O[C@@H]3C[C@@]4(C=O)[C@@H](CC[C@@H]5[C@@H]4CC[C@]4(C)[C@@H](C6=CC(=O)OC6)CC[C@]54O)C[C@H]3O[C@@H]2O1 | 0.0724 µM and 0.0123 µM | 0.0576 µM and 0.067 µM and 0.0709 µM | 0.0631 µM and 0.107 µM | 0.104 µM and 0.0732 µM | 0.0919 µM and 0.22 µM and 0.288 µM | 0.211 | 0.098 µM and 0.0775 µM and 0.0558 µM | – | 0.118 µM | – | 0.179 µM | 0.0143 µM and 0.005 µM | – | – | 0.0202 µM and 0.005 µM | – | 0.0218 | 0.051 | – | 0.0125 |
| Cn1c(=O)nc2n(-c3ccc(Cl)cc3)c3ccc(Cl)cc3nc-2c1=O | – | 49.5 µM | 36.7 µM | – | 10.4 µM | 29.6 | 53.6 µM | – | – | – | – | – | – | – | – | – | – | – | – | – |
| O=c1c2ccccc2[nH]c(=S)n1-c1ccc(Br)cc1 | – | > 100 µM | > 100 µM | > 100 µM | > 100 µM | > 100 | > 100 µM | – | – | – | – | – | – | – | – | – | – | – | – | – |
